From PubChem BioAssay (NCI)
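Results reflect a 48-hour exposure of cells in 96-well plates to compound at five concentrations. TGI: concentration producing complete growth inhibition.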

Key:
Experiment in all cases: DTP human tumour cell line panel, 48 h
HT29 colon = test system: HT29 colon
SF-295 CNS = test system: SF-295 CNS
SW-620 colon = test system: SW-620 colon
SF-539 CNS = test system: SF-539 CNS
COLO 205 colon = test system: COLO 205 colon
HCT-116 colon = test system: HCT-116 colon
HOP-62 NSCLC = test system: HOP-62 NSCLC
MALME-3M melanoma = test system: MALME-3M melanoma
NCI/ADR-RES ovarian = test system: NCI/ADR-RES ovarian
MDA-N = test system: MDA-N

SMILES	TGI (HT29 colon)	TGI (SF-295 CNS)	TGI (SW-620 colon)	TGI (SF-539 CNS)	TGI (COLO 205 colon)	TGI (HCT-116 colon)	TGI (HOP-62 NSCLC)	TGI (MALME-3M melanoma)	TGI (NCI/ADR-RES ovarian)	TGI (MDA-N)
CCN(CC)C1Oc2cc3c(cc2C(c2cc(OC)c(OC)c(OC)c2)C1C)OCO3 (stereo not given)	9.95 µM	10 µM	> 63.1 µM	1.43 µM	4.8 µM	13.4 µM	12.9 µM	> 64 µM	0.771 µM	0.456 µM
Cn1ccc2c(c1=O)C(=O)OC2(C)C	> 100 µM	> 100 µM	> 100 µM	> 100 µM	> 100 µM	> 100 µM	> 100 µM	> 100 µM	> 100 µM	> 100 µM
O=c1nc2ccc3sc4ccccc4c(=O)c3n2c(=O)[nH]1	> 100 µM	> 100 µM	> 100 µM	> 100 µM	> 100 µM	> 100 µM	> 100 µM	> 100 µM	> 100 µM	> 100 µM
COc1cc2oc(-c3ccc4c(c3)OCO4)c(OC)c(=O)c2c(O)c1OC	> 50 µM	> 50 µM	> 50 µM	> 50 µM	> 50 µM	> 50 µM	> 50 µM	> 50 µM	> 50 µM	> 50 µM
CNC(=O)N(CCC#N)CCCN(C(=O)N(C)C)c1ccccc1	> 100 µM	> 100 µM	> 100 µM	> 100 µM	> 100 µM	> 100 µM	> 100 µM	> 100 µM	> 100 µM	> 100 µM
COc1ccc2c(c1)C(=O)C1CCC(=O)N1C2c1ccc2c(c1)OCO2 (stereo not given)	16.9 µM	36.3 µM	23.7 µM	42.7 µM	25.7 µM	14.9 µM	42.8 µM	15.9 µM	> 100 µM	> 100 µM
CC(C#N)N(CCc1ccccc1)C(=O)c1ccccc1 (stereo not given)	> 100 µM	> 100 µM	> 100 µM	> 100 µM	> 100 µM	> 100 µM	> 100 µM	> 100 µM	> 100 µM	> 100 µM
COC(=O)c1cc(C)ccc1/C=C1\Cc2c(C)cc(C)cc2C1=O	> 100 µM	33.1 µM	> 100 µM	42.3 µM	> 100 µM	> 100 µM	32.4 µM	> 100 µM	> 100 µM	> 100 µM
COc1cc2oc(=O)cc(C)c2cc1OC	> 100 µM	> 100 µM	> 100 µM	> 100 µM	> 100 µM	> 100 µM	> 100 µM	> 100 µM	> 100 µM	> 100 µM
O=C(O)COc1cc(-c2ccccc2)nc2ccccc12	> 100 µM	> 100 µM	> 100 µM	> 100 µM	> 100 µM	> 100 µM	> 100 µM	> 100 µM	> 100 µM	85.7 µM
CC1CN=C(c2ccc(-c3nc(-c4ccc(C5=NCC(C)N5)cc4)nc(N(C)C)n3)cc2)N1 (stereo not given)	7.33 µM	15.8 µM	5.56 µM	2.2 µM	2.38 µM	3.16 µM	5.35 µM	8.87 µM	56.4 µM	4.03 µM
Cc1ccc(/C=N\NC(=O)c2ccncc2)s1	> 100 µM	> 100 µM	> 100 µM	> 100 µM	> 100 µM	> 100 µM	> 100 µM	> 100 µM	> 100 µM	> 100 µM
O=P(O)(O)C=C=C1CCCCC1	> 100 µM	> 100 µM	> 100 µM	> 100 µM	> 100 µM	> 100 µM	> 100 µM	> 100 µM	> 100 µM	> 100 µM
COC(=O)/C=c1/c2ccccc2n2c1c1ccccc1[n+]2C	12.8 µM	5.63 µM	12.3 µM	14 µM	2.51 µM	10.1 µM	15.3 µM	6.74 µM	> 100 µM	11.1 µM
CC(=Nc1cc(Cl)cc(Cl)c1)c1ccncc1	> 100 µM	> 100 µM	> 100 µM	> 100 µM	> 100 µM	> 100 µM	> 100 µM	> 100 µM	> 100 µM	> 100 µM
Clc1nc2c(C#Cc3ccccc3)ncnc2n1C1CCCCO1 (stereo not given)	27.6 µM	54.4 µM	55.3 µM	42.2 µM	32.7 µM	21.7 µM	> 100 µM	41.7 µM	> 100 µM	25.2 µM
CCn1c(=O)c2c3ccc(OC(C)=O)cc3[nH]c2c2ccc(OC(C)=O)cc21	> 100 µM	> 100 µM	> 100 µM	> 100 µM	> 100 µM	30.1 µM	> 100 µM	> 100 µM	> 100 µM	> 100 µM
